Literature values, collected in patent publication US20100112724A1, “METHOD OF DETERMINATION OF PROTEIN LIGAND BINDING AND OF THE MOST PROBABLE LIGAND POSE IN PROTEIN BINDING SITE” (priority 2007, published 2010).

test system: protein of the protein-ligand complex (pdb code); conditions: experimentally known binding affinity of test and training protein-ligand complexes selected from PDB, structures described in publications [7, 8, 9]

Structure (SMILES)	ΔG, kcal/mol (free energy of ligand-protein binding)
O[C@@H]1[C@@H](O)[C@@H](O)CO[C@H]1O [1ABE]	-9.2 kcal/mol
C[C@H]1O[C@H](O)[C@H](O)[C@@H](O)[C@H]1O [1ABF]	-7.3 kcal/mol
Nc1ccnc2c1ncn2[C@@H]1O[C@H](CO)[C@@H](O)[C@H]1O [1ADD]	-9.2 kcal/mol
OC[C@H]1O[C@H](O[C@H]2[C@H](O)[C@@H](O)[C@H](O)O[C@@H]2CO)[C@H](O)[C@@H](O)[C@@H]1O [1ANF]	-7.3 kcal/mol
C[C@H]1O[C@@H](O)[C@H](O)[C@@H](O)[C@H]1O [1APB]	-7.8 kcal/mol
O[C@@H]1[C@@H](O)[C@@H](O)OC[C@@H]1O [1BAP]	-9.3 kcal/mol
CN[C@H]1CN(c2cccc(OC)c2)S(=O)(=O)c2sc(S(N)(=O)=O)cc21 [1BNM]	-14.2 kcal/mol
COc1cccc(N2CCc3cc(S(N)(=O)=O)sc3S2(=O)=O)c1 [1BNN]	-14.2 kcal/mol
CCN[C@H]1CN(CCOC)S(=O)(=O)c2sc(S(N)(=O)=O)cc21 [1BNQ]	-13.5 kcal/mol
COc1ccc(N2C[C@H](O)c3cc(S(N)(=O)=O)sc3S2(=O)=O)cc1 [1BNT]	-13.9 kcal/mol
NS(=O)(=O)c1cc2c(s1)S(=O)(=O)N(Cc1cccs1)C[C@@H]2O [1BNU]	-13.8 kcal/mol
NS(=O)(=O)c1ccc(S(=O)(=O)NCc2cccs2)s1 [1BNW]	-12.9 kcal/mol
CC1=C(/C=C/C(C)=C/C=C/C(C)=C/CO)C(C)(C)CCC1 [1BRP]	-9.3 kcal/mol
O=C(O)C[C@@H](Cc1ccccc1)C(=O)O [1CBX]	-8.7 kcal/mol
CCN[C@H]1C[C@H](C)S(=O)(=O)c2sc(S(N)(=O)=O)cc21 [1CIL]	-12.9 kcal/mol
C[C@H]1C[C@H](N)c2cc(S(N)(=O)=O)sc2S1(=O)=O [1CIM]	-12 kcal/mol
CN[C@H]1C[C@H](C)S(=O)(=O)c2sc(S(N)(=O)=O)cc21 [1CIN]	-11.9 kcal/mol
C[C@]12CCC(=O)C[C@H]1CC[C@@H]1[C@@H]2CC[C@]2(C)C(=O)CC[C@@H]12 [1DBK]	-11 kcal/mol
Nc1nc(=O)c2nc(CNc3ccc(C(=O)N[C@@H](CCC(=O)O)C(=O)O)cc3)cnc2[nH]1 [1DHF]	-10.1 kcal/mol
N=C(N)c1ccccc1 [1DWB]	-4 kcal/mol
N[C@@H](Cc1c[nH]cn1)C(=O)O [1HSL]	-9.8 kcal/mol
C[C@H](NC(=O)[C@@H](CS)Cc1ccccc1)C(=O)NCC(N)=O [1JAO]	-8.1 kcal/mol
CNC(=O)[C@H](Cc1ccccc1)NC(=O)[C@@H](CC(=O)NO)CC(C)C [1MNC]	-12.6 kcal/mol
CC(=O)N[C@H]1[C@H]([C@H](O)[C@H](O)CO)OC(C(=O)O)=C[C@@H]1O [1NNB]	-7.2 kcal/mol
CC(=O)N[C@H]1[C@H]([C@@H](O)[C@@H](O)CO)O[C@@](O)(C(=O)O)C[C@@H]1O [1NSC]	-4.1 kcal/mol
O=C(O)[C@H](O)[C@@H](O)[C@H](O)[C@H](O)COP(=O)(O)O [1PGP]	-7.8 kcal/mol
Cc1ccc(S(=O)(=O)N[C@@H](Cc2cccc(C(=N)N)c2)C(=O)N2CCCCC2)cc1 [1PPH]	-8.4 kcal/mol

Structure (SMILES)	ΔG, kcal/mol (free energy of ligand-protein binding)
CC1=C(/C=C/C(C)=C/C=C/C(C)=C/CO)C(C)(C)CCC1 [1RBP]	-9.2 kcal/mol
Nc1nc2c(ncn2[C@@H]2O[C@H](CO)[C@@H](O)[C@H]2OP(=O)(O)O)c(=O)[nH]1 [1RNT]	-7.1 kcal/mol
NCC1CCCCC1 [1TNG]	-4 kcal/mol
NCCCCc1ccccc1 [1TNI]	-2.3 kcal/mol
NCCc1ccccc1 [1TNJ]	-2.7 kcal/mol
NCCCc1ccccc1 [1TNK]	-2 kcal/mol
N[C@H]1C[C@@H]1c1ccccc1 [1TNL]	-2.6 kcal/mol
O=C(O)[C@@H](O)Cc1ccccc1 [2CTC]	-5.3 kcal/mol
CC(=O)[C@H]1CC[C@H]2[C@@H]3CC[C@H]4C[C@@H](OC(=O)CCC(=O)O)CC[C@]4(C)[C@H]3CC[C@]12C [2DBL]	-11.9 kcal/mol
OC[C@H]1O[C@@H](O)[C@H](O)[C@@H]1O [2DRI]	-8.9 kcal/mol
OC[C@H]1O[C@@H](O)[C@H](O)[C@@H](O)[C@@H]1O [2GBP]	-10.2 kcal/mol
CC(=O)N[C@H]1[C@H]([C@H](O)[C@H](O)CO)O[C@@](O)(C(=O)O)C[C@@H]1O [2QWB]	-3.7 kcal/mol
CC(=O)N[C@H]1[C@H]([C@H](O)[C@H](O)CO)OC(C(=O)O)=C[C@@H]1O [2QWC]	-4.8 kcal/mol
CC(=O)N[C@H]1[C@H]([C@H](O)[C@H](O)CO)OC(C(=O)O)=C[C@@H]1N [2QWD]	-6.6 kcal/mol
CC(=O)N[C@H]1[C@H]([C@H](O)[C@H](O)CO)OC(C(=O)O)=C[C@@H]1N=C(N)N [2QWE]	-10.2 kcal/mol
CCN(CC)C(=O)[C@@H]1OC(C(=O)O)=C[C@H](N)[C@H]1NC(C)=O [2QWG]	-11.5 kcal/mol
CC(C)C[C@H](NP(=O)(O)O)C(N)=O [2TMN]	-8 kcal/mol
O=C(O)COP(=O)(O)O [2YPI]	-6.6 kcal/mol
N=C(N)c1ccccc1 [3PTB]	-6.3 kcal/mol
OC[C@H]1O[C@H](O)[C@H](O)[C@@H](O)[C@H]1O [5ABP]	-8.9 kcal/mol
O=P(O)(O)OC[C@@H](O)CO [6TIM]	-4.4 kcal/mol
C[C@H]1O[C@H](O)[C@H](O)[C@@H](O)[C@H]1O [7ABP]	-8.7 kcal/mol
O=C(COP(=O)(O)O)NO [7TIM]	-7.4 kcal/mol
OC[C@H]1O[C@H](O)[C@H](O)[C@@H](O)[C@H]1O [8ABP]	-10.7 kcal/mol
O=C(O)C[C@H](NC(=O)CP(=O)(O)O)C(=O)O [8ATC]	-10.3 kcal/mol
OC[C@H]1O[C@@H](O)[C@H](O)[C@@H](O)[C@H]1O [9ABP]	-10.7 kcal/mol
